# In the kinase profiling compilation of Christmann-Franck et al. (2016):
# Experiments:
# Experiment in all cases: KINOMEscan competition binding
# Settings in all cases: compound 2.0 µM
# PHKG1 (human) = PHKG1 (human) (UniProt Q16816)
# HIPK4 (human) = HIPK4 (human) (UniProt Q8NE63)
# PRKACA (human) = PRKACA (human) (UniProt P17612)
# CDK9 (human) = CDK9 (human) (UniProt P50750)
# PAK7 (human) = PAK7 (human) (UniProt Q9P286)
# EPHB6 (human) = EPHB6 (human) (UniProt O15197)
# NLK (human) = NLK (human) (UniProt Q9UBE8)
# RPS6KA4 KD1 (human) = RPS6KA4 KD1 (human) (UniProt O75676)
# Chain of RPS6KA4 KD1 (human) (O75676 whole entry, looked up): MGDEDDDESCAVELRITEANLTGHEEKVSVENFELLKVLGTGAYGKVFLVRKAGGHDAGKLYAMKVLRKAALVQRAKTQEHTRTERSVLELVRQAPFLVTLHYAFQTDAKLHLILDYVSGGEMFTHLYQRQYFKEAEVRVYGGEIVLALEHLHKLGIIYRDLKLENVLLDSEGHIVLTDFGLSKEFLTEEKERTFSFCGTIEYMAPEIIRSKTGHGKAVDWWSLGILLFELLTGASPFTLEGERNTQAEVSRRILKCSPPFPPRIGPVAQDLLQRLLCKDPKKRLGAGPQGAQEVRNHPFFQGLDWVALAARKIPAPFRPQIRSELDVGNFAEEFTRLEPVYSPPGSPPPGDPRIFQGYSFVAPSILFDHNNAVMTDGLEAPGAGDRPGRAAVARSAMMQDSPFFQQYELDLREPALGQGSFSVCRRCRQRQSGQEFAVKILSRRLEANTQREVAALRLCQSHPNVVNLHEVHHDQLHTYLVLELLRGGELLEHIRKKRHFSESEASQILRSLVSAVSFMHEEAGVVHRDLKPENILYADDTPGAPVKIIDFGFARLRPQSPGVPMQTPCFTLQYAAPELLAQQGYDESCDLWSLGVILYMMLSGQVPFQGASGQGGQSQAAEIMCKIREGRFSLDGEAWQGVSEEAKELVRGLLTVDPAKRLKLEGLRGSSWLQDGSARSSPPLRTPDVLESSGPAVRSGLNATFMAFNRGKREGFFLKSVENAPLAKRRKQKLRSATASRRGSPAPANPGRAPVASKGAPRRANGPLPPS
# SLK (human) = SLK (human) (UniProt Q9H2G2)
# SIK2 (human) = SIK2 (human) (UniProt Q9H0K1)
# EPHA5 (human) = EPHA5 (human) (UniProt P54756)
# NUAK1 (human) = NUAK1 (human) (UniProt O60285)
# CLK2 (human) = CLK2 (human) (UniProt P49760)
# PKN3 (M.tuberculosis) = PKN3 (M.tuberculosis) (UniProt Q6P5Z2)
# DDR1 (human) = DDR1 (human) (UniProt Q08345)
# MAP2K2 (human) = MAP2K2 (human) (UniProt P36507)
# MAP3K9 (human) = MAP3K9 (human) (UniProt P80192)
# MAPK12 (human) = MAPK12 (human) (UniProt P53778)
# AURKC (human) = AURKC (human) (UniProt Q9UQB9)
# MUSK (human) = MUSK (human) (UniProt O15146)
# YES1 (human) = YES1 (human) (UniProt P07947)
# [1] = test system: KIT (human), P10721 [A829P]
# Chain of KIT (human), P10721 [A829P] (P10721 whole entry A829P, looked up): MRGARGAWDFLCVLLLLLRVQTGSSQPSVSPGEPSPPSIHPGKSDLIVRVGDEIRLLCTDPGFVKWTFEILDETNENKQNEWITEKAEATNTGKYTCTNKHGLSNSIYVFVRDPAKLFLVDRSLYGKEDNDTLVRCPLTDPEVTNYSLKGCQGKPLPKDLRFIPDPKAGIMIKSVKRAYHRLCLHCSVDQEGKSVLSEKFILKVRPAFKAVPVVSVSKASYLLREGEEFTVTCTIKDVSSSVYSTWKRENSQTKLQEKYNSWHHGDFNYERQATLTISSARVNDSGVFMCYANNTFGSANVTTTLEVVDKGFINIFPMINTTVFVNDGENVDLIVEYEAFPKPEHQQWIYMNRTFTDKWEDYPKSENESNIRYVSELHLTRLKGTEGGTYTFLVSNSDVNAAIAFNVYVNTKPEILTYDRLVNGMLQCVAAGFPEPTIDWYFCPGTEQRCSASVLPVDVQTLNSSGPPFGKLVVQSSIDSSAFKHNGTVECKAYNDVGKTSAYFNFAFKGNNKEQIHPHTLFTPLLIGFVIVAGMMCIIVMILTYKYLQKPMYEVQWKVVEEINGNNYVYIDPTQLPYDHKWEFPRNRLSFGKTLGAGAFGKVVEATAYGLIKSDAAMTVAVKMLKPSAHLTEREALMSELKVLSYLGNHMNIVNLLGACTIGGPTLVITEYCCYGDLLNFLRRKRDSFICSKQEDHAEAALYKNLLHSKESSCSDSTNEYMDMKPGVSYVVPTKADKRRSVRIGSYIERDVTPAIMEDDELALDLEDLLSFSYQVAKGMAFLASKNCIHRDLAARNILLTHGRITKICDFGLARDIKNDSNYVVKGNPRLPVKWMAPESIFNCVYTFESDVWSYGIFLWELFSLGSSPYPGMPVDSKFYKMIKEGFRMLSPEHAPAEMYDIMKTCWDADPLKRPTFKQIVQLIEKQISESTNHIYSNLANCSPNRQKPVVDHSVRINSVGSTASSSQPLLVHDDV
# BMPR2 (human) = BMPR2 (human) (UniProt Q13873)
# ROS1 (human) = ROS1 (human) (UniProt P08922)
# Chain of ROS1 (human) (P08922 whole entry, looked up): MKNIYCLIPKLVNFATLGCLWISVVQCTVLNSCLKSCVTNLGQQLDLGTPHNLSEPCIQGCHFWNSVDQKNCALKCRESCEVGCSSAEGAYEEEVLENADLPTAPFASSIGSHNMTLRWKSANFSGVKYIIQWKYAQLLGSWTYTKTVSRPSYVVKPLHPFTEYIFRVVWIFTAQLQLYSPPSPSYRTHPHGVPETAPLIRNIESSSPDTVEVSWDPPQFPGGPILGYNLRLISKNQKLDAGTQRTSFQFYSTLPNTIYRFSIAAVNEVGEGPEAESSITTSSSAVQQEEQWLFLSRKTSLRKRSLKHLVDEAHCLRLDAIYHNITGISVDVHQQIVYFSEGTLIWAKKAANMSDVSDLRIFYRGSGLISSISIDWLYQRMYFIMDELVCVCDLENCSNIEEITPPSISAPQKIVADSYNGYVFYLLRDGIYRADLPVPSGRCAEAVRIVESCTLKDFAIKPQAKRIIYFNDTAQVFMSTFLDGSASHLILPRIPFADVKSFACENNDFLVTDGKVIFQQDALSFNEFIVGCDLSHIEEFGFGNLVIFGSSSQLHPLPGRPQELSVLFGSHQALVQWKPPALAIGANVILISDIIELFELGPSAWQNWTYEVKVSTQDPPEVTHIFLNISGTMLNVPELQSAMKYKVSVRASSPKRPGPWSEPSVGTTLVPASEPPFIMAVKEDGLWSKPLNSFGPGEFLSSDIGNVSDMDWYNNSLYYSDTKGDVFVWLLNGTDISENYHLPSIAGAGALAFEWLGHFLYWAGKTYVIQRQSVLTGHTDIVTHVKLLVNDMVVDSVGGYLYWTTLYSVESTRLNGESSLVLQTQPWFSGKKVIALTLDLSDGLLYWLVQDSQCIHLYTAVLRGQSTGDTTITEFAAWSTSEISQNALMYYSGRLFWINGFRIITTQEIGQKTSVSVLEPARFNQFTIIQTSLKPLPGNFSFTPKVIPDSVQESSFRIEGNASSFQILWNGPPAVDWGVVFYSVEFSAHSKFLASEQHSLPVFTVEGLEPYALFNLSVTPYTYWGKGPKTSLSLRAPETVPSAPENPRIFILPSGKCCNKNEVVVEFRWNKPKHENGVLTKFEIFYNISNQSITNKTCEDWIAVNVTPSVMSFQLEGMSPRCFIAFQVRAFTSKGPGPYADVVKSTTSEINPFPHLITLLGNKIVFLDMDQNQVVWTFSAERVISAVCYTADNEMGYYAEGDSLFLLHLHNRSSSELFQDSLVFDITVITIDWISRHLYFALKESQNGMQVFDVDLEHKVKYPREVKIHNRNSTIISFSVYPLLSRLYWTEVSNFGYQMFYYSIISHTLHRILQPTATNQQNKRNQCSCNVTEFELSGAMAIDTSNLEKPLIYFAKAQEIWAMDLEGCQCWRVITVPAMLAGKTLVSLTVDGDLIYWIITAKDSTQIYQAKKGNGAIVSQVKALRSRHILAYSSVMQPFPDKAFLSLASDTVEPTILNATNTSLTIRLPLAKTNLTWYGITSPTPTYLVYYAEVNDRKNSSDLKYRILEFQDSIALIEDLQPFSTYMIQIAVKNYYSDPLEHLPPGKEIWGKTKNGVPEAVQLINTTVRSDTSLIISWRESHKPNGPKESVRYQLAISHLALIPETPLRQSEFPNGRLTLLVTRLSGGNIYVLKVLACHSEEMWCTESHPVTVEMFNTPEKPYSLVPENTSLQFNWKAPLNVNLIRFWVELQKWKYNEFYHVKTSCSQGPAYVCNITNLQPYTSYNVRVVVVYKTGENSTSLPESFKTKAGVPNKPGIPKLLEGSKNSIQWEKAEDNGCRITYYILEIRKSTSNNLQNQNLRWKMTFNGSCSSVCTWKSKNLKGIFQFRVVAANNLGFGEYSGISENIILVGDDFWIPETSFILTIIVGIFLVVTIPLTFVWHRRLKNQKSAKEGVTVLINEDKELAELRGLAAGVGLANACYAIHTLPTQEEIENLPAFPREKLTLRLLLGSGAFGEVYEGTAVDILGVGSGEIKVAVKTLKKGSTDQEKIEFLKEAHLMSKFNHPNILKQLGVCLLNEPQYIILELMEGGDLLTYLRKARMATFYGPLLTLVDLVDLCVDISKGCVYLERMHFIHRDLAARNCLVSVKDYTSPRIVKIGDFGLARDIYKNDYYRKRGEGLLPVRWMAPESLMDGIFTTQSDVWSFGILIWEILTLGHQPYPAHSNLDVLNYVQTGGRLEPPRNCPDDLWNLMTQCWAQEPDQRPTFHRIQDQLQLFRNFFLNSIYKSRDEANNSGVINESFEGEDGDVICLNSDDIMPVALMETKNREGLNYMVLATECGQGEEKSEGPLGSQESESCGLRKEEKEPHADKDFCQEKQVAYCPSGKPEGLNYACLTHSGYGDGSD
# EGFR (human) = EGFR (human) (UniProt P00533)
# [2] = test system: RET (human), P07949 [V804M]
# PRKAA2 (human) = PRKAA2 (human) (UniProt P54646)
# ALK (human) = ALK (human) (UniProt Q9UM73)
# GRK1 (human) = GRK1 (human) (UniProt Q15835)
# PDGFRB (human) = PDGFRB (human) (UniProt P09619)
# TNIK (human) = TNIK (human) (UniProt Q9UKE5)
# EIF2AK1 (human) = EIF2AK1 (human) (UniProt Q9BQI3)
# Chain of EIF2AK1 (human) (Q9BQI3 whole entry, looked up): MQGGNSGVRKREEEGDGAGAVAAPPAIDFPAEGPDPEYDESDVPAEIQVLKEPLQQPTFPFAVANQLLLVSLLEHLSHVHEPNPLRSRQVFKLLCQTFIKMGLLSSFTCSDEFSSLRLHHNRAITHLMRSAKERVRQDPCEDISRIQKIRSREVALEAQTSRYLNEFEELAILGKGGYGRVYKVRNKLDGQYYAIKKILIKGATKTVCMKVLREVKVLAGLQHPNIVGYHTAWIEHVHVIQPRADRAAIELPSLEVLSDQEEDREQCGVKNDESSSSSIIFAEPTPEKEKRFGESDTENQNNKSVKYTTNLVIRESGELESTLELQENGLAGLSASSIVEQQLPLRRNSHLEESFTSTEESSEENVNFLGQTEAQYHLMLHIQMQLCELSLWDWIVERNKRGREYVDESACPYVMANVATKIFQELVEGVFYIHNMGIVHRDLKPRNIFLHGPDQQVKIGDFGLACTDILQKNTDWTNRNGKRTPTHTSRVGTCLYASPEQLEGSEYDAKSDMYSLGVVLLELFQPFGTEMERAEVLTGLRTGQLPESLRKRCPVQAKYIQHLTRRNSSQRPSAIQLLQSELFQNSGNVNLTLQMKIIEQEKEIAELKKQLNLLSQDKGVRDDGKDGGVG
# DCLK1 (human) = DCLK1 (human) (UniProt O15075)
# [3] = test system: FLT3 (human), P36888 [K663Q]
# PAK4 (human) = PAK4 (human) (UniProt O96013)
# RAF1 (human) = RAF1 (human) (UniProt P04049)
# NEK1 (human) = NEK1 (human) (UniProt Q96PY6)
# PIK3CB (human) = PIK3CB (human) (UniProt P42338)
# [4] = test system: EIF2AK4 KD2 (human), Q9P2K8 [S808G]
# MAK (human) = MAK (human) (UniProt P20794)
# OXSR1 (human) = OXSR1 (human) (UniProt O95747)
# RET (human) = RET (human) (UniProt P07949)
# CSNK1D (human) = CSNK1D (human) (UniProt P48730)
# Chain of PHKG1 (human) (Q16816 whole entry, looked up): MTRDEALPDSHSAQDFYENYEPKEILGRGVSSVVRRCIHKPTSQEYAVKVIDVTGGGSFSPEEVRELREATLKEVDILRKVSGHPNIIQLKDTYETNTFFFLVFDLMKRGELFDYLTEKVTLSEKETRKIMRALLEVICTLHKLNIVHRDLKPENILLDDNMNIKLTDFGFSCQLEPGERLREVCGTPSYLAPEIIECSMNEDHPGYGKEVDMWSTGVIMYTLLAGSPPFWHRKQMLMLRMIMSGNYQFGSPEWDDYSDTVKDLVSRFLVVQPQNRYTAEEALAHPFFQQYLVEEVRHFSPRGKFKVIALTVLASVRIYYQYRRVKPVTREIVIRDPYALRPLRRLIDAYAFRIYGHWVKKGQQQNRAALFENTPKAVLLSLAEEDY
smiles,measurement,setting,value
N#Cc1ccc2ncnc(NCCc3ccc4ccccc4c3)c2c1,"kinase still bound, per cent of control",PHKG1 (human),100%
same,"kinase still bound, per cent of control",HIPK4 (human),81%
same,"kinase still bound, per cent of control",PRKACA (human),100%
same,"kinase still bound, per cent of control",CDK9 (human),100%
same,"kinase still bound, per cent of control",PAK7 (human),100%
same,"kinase still bound, per cent of control",EPHB6 (human),100%
same,"kinase still bound, per cent of control",NLK (human),85%
same,"kinase still bound, per cent of control",RPS6KA4 KD1 (human),83%
same,"kinase still bound, per cent of control",SLK (human),73%
same,"kinase still bound, per cent of control",SIK2 (human),100%
same,"kinase still bound, per cent of control",EPHA5 (human),100%
same,"kinase still bound, per cent of control",NUAK1 (human),75%
same,"kinase still bound, per cent of control",CLK2 (human),74%
same,"kinase still bound, per cent of control",PKN3 (M.tuberculosis),100%
same,"kinase still bound, per cent of control",DDR1 (human),96%
same,"kinase still bound, per cent of control",MAP2K2 (human),80%
same,"kinase still bound, per cent of control",MAP3K9 (human),85%
same,"kinase still bound, per cent of control",MAPK12 (human),100%
same,"kinase still bound, per cent of control",AURKC (human),84%
same,"kinase still bound, per cent of control",MUSK (human),100%
same,"kinase still bound, per cent of control",YES1 (human),86%
same,"kinase still bound, per cent of control",[1],89%
same,"kinase still bound, per cent of control",BMPR2 (human),100%
same,"kinase still bound, per cent of control",ROS1 (human),95%
same,"kinase still bound, per cent of control",EGFR (human),75%
same,"kinase still bound, per cent of control",[2],100%
same,"kinase still bound, per cent of control",PRKAA2 (human),80%
same,"kinase still bound, per cent of control",ALK (human),100%
same,"kinase still bound, per cent of control",GRK1 (human),100%
same,"kinase still bound, per cent of control",PDGFRB (human),100%
same,"kinase still bound, per cent of control",TNIK (human),97%
same,"kinase still bound, per cent of control",EIF2AK1 (human),100%
same,"kinase still bound, per cent of control",DCLK1 (human),89%
same,"kinase still bound, per cent of control",[3],98%
same,"kinase still bound, per cent of control",PAK4 (human),91%
same,"kinase still bound, per cent of control",RAF1 (human),100%
same,"kinase still bound, per cent of control",NEK1 (human),100%
same,"kinase still bound, per cent of control",PIK3CB (human),39%
same,"kinase still bound, per cent of control",[4],80%
same,"kinase still bound, per cent of control",MAK (human),99%
same,"kinase still bound, per cent of control",OXSR1 (human),100%
same,"kinase still bound, per cent of control",RET (human),90%
same,"kinase still bound, per cent of control",CSNK1D (human),99%
